Data published in ChEMBL document CHEMBL4359849, “Bioisosteric ferrocenyl aminoquinoline-benzimidazole hybrids: Antimicrobial evaluation and mechanistic insights” (Eur J Med Chem, 2019).

Columns and labels:
[1] = test system: CHO; assay: Cytotoxicity against CHO cells measured after 48 hrs by MTT assay; type: cell-based; conditions: Cricetulus griseus
[2] = test system: Mycobacterium tuberculosis; assay: Antimycobacterial activity against Mycobacterium tuberculosis H37Rv after 14 days in presence of middlebrook 7H9/CAS medium by broth microdilution method; type: functional; conditions: 336 h
[3] = test system: Mycobacterium tuberculosis; assay: Antimycobacterial activity against Mycobacterium tuberculosis H37Rv after 7 days in presence of middlebrook 7H9/ADC medium by microplate alamar blue assay; type: functional; conditions: 168 h
[4] = test system: Plasmodium falciparum; assay: Antiplasmodial activity against chloroquine-resistant asexual blood stage of Plasmodium falciparum K1 by LDH assay; type: functional, organism-based
[5] = test system: Plasmodium falciparum; assay: Antiplasmodial activity against chloroquine-sensitive asexual blood stage of Plasmodium falciparum NF54 by LDH assay; type: functional, organism-based
[6] = test system: Mycobacterium tuberculosis; assay: Antimycobacterial activity against Mycobacterium tuberculosis H37Rv after 14 days in presence of middlebrook 7H9/ADC medium by broth microdilution method; type: functional; conditions: 336 h
[7] = test system: Mycobacterium tuberculosis; assay: Antimycobacterial activity against Mycobacterium tuberculosis H37Rv after 7 days in presence of middlebrook 7H9/CAS medium by microplate alamar blue assay; type: functional; conditions: 168 h
[8] = Resistance index, ratio of IC50 for chloroquine-resistant asexual blood stage of Plasmodium falciparum K1 to IC50 for chloroquine-sensitive asexual blood stage of Plasmodium falciparum NF54; type: functional
[9] = Selectivity index, ratio of IC50 for CHO cells to IC50 for chloroquine-sensitive asexual blood stage of Plasmodium falciparum NF54; type: toxicity; conditions: hamster, read-out: Ratio IC50
[10] = Selectivity index, ratio of IC50 for CHO cells to IC50 for chloroquine-resistant asexual blood stage of Plasmodium falciparum K1; type: toxicity; conditions: hamster, read-out: Ratio IC50
[11] = test system: Hemozoin; assay: Inhibition of beta-hematin formation assessed as reduction in hemozoin formation incubated for 16 hrs by NP40 detergent-mediated assay
[12] = test system: Plasmodium berghei; assay: Antimalarial activity against GFP-transfected Plasmodium berghei ANKA infected mouse assessed as reduction in parasitemia at 50 mg/kg, po consecutively at 4, 24, 48 and 72 hrs post infection by flow cytometry relative to control; type: functional
[13] = test system: Hemozoin; assay: Potency index, ratio of chloroquine IC50 to compound IC50 for inhibition of beta-hematin assessed as hemozoin formation
[14] = test system: Plasmodium berghei; assay: Antimalarial activity against GFP-transfected Plasmodium berghei ANKA infected in mouse assessed as mean survival days at 50 mg/kg, po administered consecutively at 4, 24, 48 and 72 hrs post infection; type: functional

SMILES	IC50 [1] [µM]	MIC90 [2] [µM]	MIC90 [3] [µM]	IC50 [4] [µM]	IC50 [5] [µM]	MIC90 [6] [µM]	MIC90 [7] [µM]	Ratio IC50 [8]	selectivity ratio [9]	selectivity ratio [10]	IC50 [11] [µM]	inhibition in vivo at 50 mg/kg [12] [%]	Ratio IC50 [13]	MSD [14] [days]
CC[C@H]1CN2CCc3cc(OC)c(OC)cc3[C@@H]2C[C@@H]1C[C@H]1NCCc2cc(OC)c(OC)cc21 [EMETINE]	0.0162													
Cc1ccc2c(c1)nc(-c1ccccc1)n2CCCNc1ccnc2cc(Cl)ccc12	> 50	31.2	> 62.5	0.457	0.784	125	32.7	0.583						
Clc1ccc2c(NCCCn3c(-c4ccccc4)nc4ccccc43)ccnc2c1	42	62.5	38.8	0.201	5.55	125	50.6	0.0362	7.57	209				
C[C@H]1[C@H](OC(=O)CCC(=O)O)O[C@@H]2O[C@@]3(C)CC[C@H]4[C@H](C)CC[C@@H]1[C@@]24OO3 [ARTESUNATE]					0.0098									
CCN(CC)CCCC(C)Nc1ccnc2cc(Cl)ccc12 (centres undefined) [CHLOROQUINE]											74			
CS(=O)(=O)c1ccc2c(c1)nc(-c1ccccc1)n2CCCNc1ccnc2cc(Cl)ccc12	40.9	125	> 62.5	1.83	0.559	> 125	> 125	3.28	73.2	22.4				
N#Cc1ccc2c(c1)nc(-c1ccccc1)n2CCCNc1ccnc2cc(Cl)ccc12	38.9	62.5	> 62.5	0.179	0.975	> 125	> 125	0.183	39.9	217				
CO[C@H]1/C=C/O[C@@]2(C)Oc3c(C)c(O)c4c(O)c(c(/C=N/N5CCN(C)CC5)c(O)c4c3C2=O)NC(=O)/C(C)=C\C=C\[C@H](C)[C@H](O)[C@@H](C)[C@@H](O)[C@@H](C)[C@H](OC(C)=O)[C@@H]1C [RIFAMPIN]		0.018	0.0156			0.018	0.0217							
FC(F)(F)c1ccc2c(c1)nc(-c1ccccc1)n2CCCNc1ccnc2cc(Cl)ccc12	16.2	15.6	89.1	0.151	0.431	62.5	15.8	0.35	37.5	107	16	58	4	7
